In brackets after ≈: the same amount, converted by molar mass. Non-standard residues stand in square brackets, D forms with d. Residues, ends and D or L forms follow the SMILES beside them. Bip = N[C@@H](Cc1ccc(-c2ccccc2)cc1)C(=O)O; pY = N[C@@H](Cc1ccc(OP(=O)(O)O)cc1)C(=O)O; 2Nal = N[C@@H](Cc1ccc2ccccc2c1)C(=O)O
Assays:
Escherichia coli [1] = experiment: Antibacterial activity against Escherichia coli ATCC 25922 incubated for 18 to 24 hrs by broth microdilution method; type: functional; conditions: time 18-24 hrs
Acinetobacter baumannii = experiment: Antibacterial activity against Acinetobacter baumannii ATCC 19606 incubated for 18 to 24 hrs by broth microdilution method; type: functional; conditions: time 18-24 hrs
Pseudomonas aeruginosa [2] = experiment: Antibacterial activity against Pseudomonas aeruginosa ATCC 27853 incubated for 18 to 24 hrs by broth microdilution method; type: functional; conditions: time 18-24 hrs
Staphylococcus aureus [3] = experiment: Antibacterial activity against methicillin resistant Staphylococcus aureus ATCC 33591 incubated for 18 to 24 hrs by broth microdilution method; type: functional; conditions: time 18-24 hrs
Staphylococcus aureus [4] = experiment: Antibacterial activity against Staphylococcus aureus 794 incubated for 18 to 24 hrs by broth microdilution method; type: functional; conditions: time 18-24 hrs
[5] = Cytotoxicity against HEK293T cells incubated for 1 hr by fluorescence based microplate reader assay; type: toxicity, cell-based, HEK-293T; conditions: human
[6] = Hemolytic activity in mouse erythrocyte incubated for 1 hr by microplate reader assay; type: toxicity, cell-based
Escherichia coli [7] = experiment: Antibacterial activity against Escherichia coli 850 incubated for 18 to 24 hrs by broth microdilution method; type: functional; conditions: time 18-24 hrs
Klebsiella pneumoniae [8] = experiment: Antibacterial activity against Klebsiella pneumoniae ATCC 700603 incubated for 18 to 24 hrs by broth microdilution method; type: functional; conditions: time 18-24 hrs
Staphylococcus aureus [9] = experiment: Antibacterial activity against methicillin resistant Staphylococcus aureus 48 incubated for 18 to 24 hrs by broth microdilution method; type: functional; conditions: time 18-24 hrs
Pseudomonas aeruginosa [10] = experiment: Antibacterial activity against Pseudomonas aeruginosa 119 incubated for 18 to 24 hrs by broth microdilution method; type: functional; conditions: time 18-24 hrs
Bacillus subtilis = experiment: Antibacterial activity against Bacillus subtilis ATCC 23857 incubated for 18 to 24 hrs by broth microdilution method; type: functional; conditions: time 18-24 hrs
Staphylococcus aureus [11] = experiment: Antibacterial activity against Staphylococcus aureus ATCC 25923 incubated for 18 to 24 hrs by broth microdilution method; type: functional; conditions: time 18-24 hrs
Escherichia coli [12] = experiment: Antibacterial activity against Escherichia coli 780 incubated for 18 to 24 hrs by broth microdilution method; type: functional; conditions: time 18-24 hrs
Klebsiella pneumoniae [13] = experiment: Drug resistance development in Klebsiella pneumoniae ATCC 700603 assessed as fold increase in MIC measured after 7 passage; type: functional

| Compound | MIC (Escherichia coli [1]) | MIC (Acinetobacter baumannii) | MIC (Pseudomonas aeruginosa [2]) | MIC (Staphylococcus aureus [3]) | MIC (Staphylococcus aureus [4]) | CC50 at 1 h [5] | MHC [6] | MIC (Escherichia coli [7]) | MIC (Klebsiella pneumoniae [8]) | MIC (Staphylococcus aureus [9]) | MIC (Pseudomonas aeruginosa [10]) | MIC (Bacillus subtilis) | MIC (Staphylococcus aureus [11]) | MIC (Escherichia coli [12]) | fold change (FC) (Klebsiella pneumoniae [13]) |
| --- | --- | --- | --- | --- | --- | --- | --- | --- | --- | --- | --- | --- | --- | --- | --- |
| H-GLWKRLKYLL-NH2 | 8 µM | 8 µM | 8 µM | 8 µM | 8 µM | 115 µM | 182.72 µM | 8 µM | 8 µM | 8 µM | 16 µM | 4 µM | 8 µM | 8 µM |  |
| CC(C)C[C@H](NC(=O)[C@H](CC(C)C)NC(=O)[C@H](Cc1ccc(O)cc1)NC(=O)[C@H](CCCCN)NC(=O)[C@H](Cc1ccc(-c2ccccc2)cc1)NC(=O)[C@H](CCCNC(=N)N)NC(=O)[C@H](CCCCN)NC(=O)[C@H](CC(C)C)NC(=O)[C@H](CC(C)C)NC(=O)CN)C(N)=O (H-GLLKR[Bip]KYLL-NH2) | 8 µM (≈ 10.6 µg/mL) | 16 µM (≈ 21.2 µg/mL) | 8 µM (≈ 10.6 µg/mL) | 8 µM (≈ 10.6 µg/mL) | 8 µM (≈ 10.6 µg/mL) | 82.3 µM | 99.53 µM | 8 µM (≈ 10.6 µg/mL) | 8 µM (≈ 10.6 µg/mL) | 8 µM (≈ 10.6 µg/mL) | 8 µM (≈ 10.6 µg/mL) | 4 µM (≈ 5.3 µg/mL) | 8 µM (≈ 10.6 µg/mL) | 8 µM (≈ 10.6 µg/mL) |  |
| CC(C)C[C@H](NC(=O)[C@H](CC(C)C)NC(=O)[C@@H](NC(=O)[C@H](CCCCN)NC(=O)[C@H](CC(C)C)NC(=O)[C@H](CCCNC(=N)N)NC(=O)[C@H](CCCCN)NC(=O)[C@H](Cc1ccc(-c2ccccc2)cc1)NC(=O)[C@H](CC(C)C)NC(=O)CN)[C@@H](C)O)C(N)=O (H-GL[Bip]KRLKTLL-NH2) | 8 µM (≈ 10.1 µg/mL) | 8 µM (≈ 10.1 µg/mL) | 8 µM (≈ 10.1 µg/mL) | 8 µM (≈ 10.1 µg/mL) | 8 µM (≈ 10.1 µg/mL) | 76.4 µM | 47.48 µM | 8 µM (≈ 10.1 µg/mL) | 8 µM (≈ 10.1 µg/mL) | 8 µM (≈ 10.1 µg/mL) | 8 µM (≈ 10.1 µg/mL) | 8 µM (≈ 10.1 µg/mL) | 8 µM (≈ 10.1 µg/mL) | 8 µM (≈ 10.1 µg/mL) |  |
| CC(C)C[C@H](NC(=O)[C@H](CC(C)C)NC(=O)[C@H](Cc1ccc(OP(=O)(O)O)cc1)NC(=O)[C@H](CCCCN)NC(=O)[C@H](CC(C)C)NC(=O)[C@H](CCCNC(=N)N)NC(=O)[C@H](CCCCN)NC(=O)[C@H](Cc1ccc2ccccc2c1)NC(=O)[C@H](CC(C)C)NC(=O)CN)C(N)=O (H-GL[2Nal]KRLK[pY]LL-NH2) | 8 µM (≈ 11 µg/mL) | 8 µM (≈ 11 µg/mL) | 16 µM (≈ 22.1 µg/mL) | 8 µM (≈ 11 µg/mL) | 8 µM (≈ 11 µg/mL) | 128 µM | 164.57 µM | 8 µM (≈ 11 µg/mL) | 8 µM (≈ 11 µg/mL) | 8 µM (≈ 11 µg/mL) | 32 µM (≈ 44.1 µg/mL) | 8 µM (≈ 11 µg/mL) | 8 µM (≈ 11 µg/mL) | 16 µM (≈ 22.1 µg/mL) |  |
| NC[C@H]1O[C@H](O[C@H]2[C@H](O)[C@@H](O[C@H]3O[C@H](CO)[C@@H](O)[C@H](N)[C@H]3O)[C@H](N)C[C@@H]2N)[C@H](O)[C@@H](O)[C@@H]1O [KANAMYCIN] | 8 µM (≈ 3.88 µg/mL) | 8 µM (≈ 3.88 µg/mL) | > 128 µM | > 128 µM | 64 µM (≈ 31 µg/mL) |  |  | > 128 µM | 32 µM (≈ 15.5 µg/mL) | > 128 µM | 64 µM (≈ 31 µg/mL) | < 1 µM | < 1 µM | 32 µM (≈ 15.5 µg/mL) | 128 |
| CC(C)C[C@H](NC(=O)[C@H](CC(C)C)NC(=O)[C@H](Cc1ccc(OP(=O)(O)O)cc1)NC(=O)[C@H](CCCCN)NC(=O)[C@H](CC(C)C)NC(=O)[C@H](CCCNC(=N)N)NC(=O)[C@H](CCCCN)NC(=O)[C@H](Cc1c[nH]c2ccccc12)NC(=O)[C@H](CC(C)C)NC(=O)CN)C(N)=O (H-GLWKRLK[pY]LL-NH2) | 8 µM (≈ 10.9 µg/mL) | 8 µM (≈ 10.9 µg/mL) | 32 µM (≈ 43.8 µg/mL) | 16 µM (≈ 21.9 µg/mL) | 8 µM (≈ 10.9 µg/mL) | 148 µM | 268.04 µM | 16 µM (≈ 21.9 µg/mL) | 16 µM (≈ 21.9 µg/mL) | 16 µM (≈ 21.9 µg/mL) | 64 µM (≈ 87.6 µg/mL) | 8 µM (≈ 10.9 µg/mL) | 16 µM (≈ 21.9 µg/mL) | 8 µM (≈ 10.9 µg/mL) |  |

From ChEMBL document CHEMBL6092167, “Phosphorylation as an Effective Tool to Improve Stability and Reduce Toxicity of Antimicrobial Peptides” (J Med Chem, 2024)
